From ChEMBL document CHEMBL5154649, “Design, synthesis, and characterization of novel aminoalcohol quinolines with strong in vitro antimalarial activity” (Eur J Med Chem, 2022) come the findings set out here.

Bounds are passed on as bounds.

System in one series: not listed separately
Nature of the series: Cytotoxicity against human HepG2 cells assessed as reduction in cell viability incubated for 72 hrs by MTT assay. It is filed as toxicity, cell-based.
Conditions: not given
(Tetrazolium assays rely on reduction of a dye to a coloured formazan, in cell work by metabolically active cells.)
As a reminder, the IC50 is the midpoint of a concentration-inhibition curve. For `O[C@@H](CNCCNC(c1ccccc1)c1ccccc1)c1cc(C(F)(F)F)nc2c(C(F)(F)F)cccc12`, the IC50 at 72 h was found to be 8800 nM.
The same measure, in the same setting: the figure for `OC[C@@H](Cc1ccccc1)NC[C@@H](O)c1cc(C(F)(F)F)nc2c(C(F)(F)F)cccc12` (single isomer, unassigned) is 15400 nM; for `O[C@H](CNCCCC(F)(F)F)c1cc(C(F)(F)F)nc2c(C(F)(F)F)cccc12` it is 7600 nM.

Another series concerns Plasmodium falciparum. Description: Selectivity index, ratio of IC50 for antiplasmodial activity against CQ-susceptible Plasmodium falciparum 3D7 to IC50 for antiplasmodial activity CQ-resistant Plasmodium falciparum W2 by HRP2-ELISA. It is filed as functional.
Conditions: not given
(In general: An ELISA detects its analyte on a solid surface through an enzyme-linked reagent.)
Consider `O[C@@H](CNCCNC(c1ccccc1)c1ccccc1)c1cc(C(F)(F)F)nc2c(C(F)(F)F)cccc12`, for which the Ratio IC50 was found to be 2.4.
Same read-out and setting: the figure for `OC[C@@H](Cc1ccccc1)NC[C@@H](O)c1cc(C(F)(F)F)nc2c(C(F)(F)F)cccc12` (single isomer, unassigned) is 1.2; for `O[C@H](CNCCCC(F)(F)F)c1cc(C(F)(F)F)nc2c(C(F)(F)F)cccc12` it is 0.85.

System in another series: not listed separately
Nature of the series: Selectivity index, ratio of IC50 for cytotoxicity against human HepG2 cells to IC50 for antiplasmodial activity against Plasmodium falciparum 3D7 infected in human erythrocytes by HRP2-ELISA. It is filed as toxicity, cell-based. The note with it: read-out: Ratio IC50.
Turning to `O[C@@H](CNCCNC(c1ccccc1)c1ccccc1)c1cc(C(F)(F)F)nc2c(C(F)(F)F)cccc12`, the selectivity ratio turned out to be 177.
On the same count and under the same terms, for `OC[C@@H](Cc1ccccc1)NC[C@@H](O)c1cc(C(F)(F)F)nc2c(C(F)(F)F)cccc12` (single isomer, unassigned) the value was 151; for `O[C@H](CNCCCC(F)(F)F)c1cc(C(F)(F)F)nc2c(C(F)(F)F)cccc12`, 493.

A further series relates to Plasmodium falciparum. Description: Antiplasmodial activity CQ-resistant Plasmodium falciparum W2 infected in human erythrocytes assessed as inhibition of parasite growth measured after 72 hrs by HRP2-ELISA. It is filed as functional, organism-based. As to conditions: W2, Erythrocyte.
For `O[C@@H](CNCCNC(c1ccccc1)c1ccccc1)c1cc(C(F)(F)F)nc2c(C(F)(F)F)cccc12`, the IC50 came out at 20.7 nM.
Still for that read-out and setting: for `OC[C@@H](Cc1ccccc1)NC[C@@H](O)c1cc(C(F)(F)F)nc2c(C(F)(F)F)cccc12` (single isomer, unassigned) the value was 82.7 nM.
Still for that read-out and setting: for `O[C@H](CNCCCC(F)(F)F)c1cc(C(F)(F)F)nc2c(C(F)(F)F)cccc12` the value was 18.2 nM.

System in another series: not listed separately
Nature of the series: Cytotoxicity against human HFF cells assessed as reduction in cell viability incubated for 72 hrs by MTT assay. It is filed as toxicity, cell-based.
Conditions: not given
On to `O[C@@H](CNCCNC(c1ccccc1)c1ccccc1)c1cc(C(F)(F)F)nc2c(C(F)(F)F)cccc12`, for which the IC50 at 72 h was 43900 nM.
Still for that read-out and setting: for `OC[C@@H](Cc1ccccc1)NC[C@@H](O)c1cc(C(F)(F)F)nc2c(C(F)(F)F)cccc12` (single isomer, unassigned) the value was 45400 nM; for `O[C@H](CNCCCC(F)(F)F)c1cc(C(F)(F)F)nc2c(C(F)(F)F)cccc12`, 35600 nM.

System in the next series: not listed separately
Nature of the series: Cytotoxicity against Chinese hamster CHO cells assessed as reduction in cell viability incubated for 24 hrs by MTT assay.
Conditions: not given
It is filed as toxicity, cell-based, Cricetulus griseus.
For the molecule `O[C@@H](CNCCNC(c1ccccc1)c1ccccc1)c1cc(C(F)(F)F)nc2c(C(F)(F)F)cccc12`, the IC50 at 24 h was 11600 nM.
Same read-out and setting: the figure for `OC[C@@H](Cc1ccccc1)NC[C@@H](O)c1cc(C(F)(F)F)nc2c(C(F)(F)F)cccc12` (single isomer, unassigned) is 35800 nM; for `O[C@H](CNCCCC(F)(F)F)c1cc(C(F)(F)F)nc2c(C(F)(F)F)cccc12` it is 39500 nM.

System in a further series: not listed separately
Nature of the series: Cytotoxicity against human THP-1 cells assessed as reduction in cell viability incubated for 72 hrs by MTT assay.
Conditions: not given
It is filed as toxicity, cell-based.
As for `O[C@@H](CNCCNC(c1ccccc1)c1ccccc1)c1cc(C(F)(F)F)nc2c(C(F)(F)F)cccc12`, the 50% inhibitory concentration (IC50) at 72 h amounted to 5000 nM.
For `OC[C@@H](Cc1ccccc1)NC[C@@H](O)c1cc(C(F)(F)F)nc2c(C(F)(F)F)cccc12` (single isomer, unassigned), the IC50 at 72 h is 7500 nM.
Take `O[C@H](CNCCCC(F)(F)F)c1cc(C(F)(F)F)nc2c(C(F)(F)F)cccc12`: the IC50 at 72 h was more than 125000 nM.

A further series concerns Plasmodium falciparum. Description: Antiplasmodial activity against CQ-resistant Plasmodium falciparum W2 assessed as inhibition of parasite growth measured after 48 hrs by SYBR Green 1 dye based fluorescence assay. It is filed as functional, organism-based. The note with it: W2, 48 h.
As to `O[C@@H](CNCCNC(c1ccccc1)c1ccccc1)c1cc(C(F)(F)F)nc2c(C(F)(F)F)cccc12`, the IC50 came to 34 nM.
Still for that read-out and setting: the figure for `OC[C@@H](Cc1ccccc1)NC[C@@H](O)c1cc(C(F)(F)F)nc2c(C(F)(F)F)cccc12` (single isomer, unassigned) is 10.3 nM; for `O[C@H](CNCCCC(F)(F)F)c1cc(C(F)(F)F)nc2c(C(F)(F)F)cccc12` it is 8.55 nM.

A further series has as its system Plasmodium falciparum. Description: Antiplasmodial activity against CQ-susceptible Plasmodium falciparum 3D7 assessed as inhibition of parasite growth measured after 48 hrs by SYBR Green 1 dye based fluorescence assay. It is filed as functional, organism-based. As to conditions: 3D7, 48 h.
As to `O[C@@H](CNCCNC(c1ccccc1)c1ccccc1)c1cc(C(F)(F)F)nc2c(C(F)(F)F)cccc12`, the IC50 is 35.8 nM.
The same measure, in the same setting: for `OC[C@@H](Cc1ccccc1)NC[C@@H](O)c1cc(C(F)(F)F)nc2c(C(F)(F)F)cccc12` (single isomer, unassigned) the value was 35.6 nM; for `O[C@H](CNCCCC(F)(F)F)c1cc(C(F)(F)F)nc2c(C(F)(F)F)cccc12`, 11.4 nM.

System in a further series: not listed separately
Nature of the series: Selectivity index, ratio of IC50 for cytotoxicity against human THP-1 cells to IC50 for antiplasmodial activity against Plasmodium falciparum 3D7 infected in human erythrocytes by HRP2-ELISA. It is filed as toxicity, cell-based. The note with it: read-out: Ratio IC50.
On to `O[C@@H](CNCCNC(c1ccccc1)c1ccccc1)c1cc(C(F)(F)F)nc2c(C(F)(F)F)cccc12`, for which the selectivity ratio was 100.
Still for that read-out and setting: for `OC[C@@H](Cc1ccccc1)NC[C@@H](O)c1cc(C(F)(F)F)nc2c(C(F)(F)F)cccc12` (single isomer, unassigned) the value was 73.
Regarding `O[C@H](CNCCCC(F)(F)F)c1cc(C(F)(F)F)nc2c(C(F)(F)F)cccc12`, the selectivity ratio is more than 8120.

System in the next series: not listed separately
Nature of the series: Selectivity index, ratio of IC50 for human HFF cells to IC50 for antiplasmodial activity against Plasmodium falciparum 3D7 infected in human erythrocytes by HRP2-ELISA. It is filed as toxicity, cell-based. The note with it: read-out: Ratio IC50.
`O[C@@H](CNCCNC(c1ccccc1)c1ccccc1)c1cc(C(F)(F)F)nc2c(C(F)(F)F)cccc12`: the selectivity ratio came out at 881.
Regarding `OC[C@@H](Cc1ccccc1)NC[C@@H](O)c1cc(C(F)(F)F)nc2c(C(F)(F)F)cccc12` (single isomer, unassigned), the selectivity ratio was found to be 444.
As for `O[C@H](CNCCCC(F)(F)F)c1cc(C(F)(F)F)nc2c(C(F)(F)F)cccc12`, the selectivity ratio is 2310.

Another series has as its system Plasmodium falciparum. Nature of the series: Selectivity index, ratio of IC50 for antiplasmodial activity against CQ-susceptible Plasmodium falciparum 3D7 to IC50 for antiplasmodial activity against CQ-resistant Plasmodium falciparum W2 by SYBR Green 1 dye based fluorescence assay.
Conditions: not given
It is filed as functional.
With `O[C@@H](CNCCNC(c1ccccc1)c1ccccc1)c1cc(C(F)(F)F)nc2c(C(F)(F)F)cccc12`, the Ratio IC50 was found to be 1.05.
On to `OC[C@@H](Cc1ccccc1)NC[C@@H](O)c1cc(C(F)(F)F)nc2c(C(F)(F)F)cccc12` (single isomer, unassigned), for which the Ratio IC50 was 3.5.
On the same count and under the same terms, the figure for `O[C@H](CNCCCC(F)(F)F)c1cc(C(F)(F)F)nc2c(C(F)(F)F)cccc12` is 1.3.

In a further series the test system is Plasmodium falciparum. Description: Antiplasmodial activity against CQ-susceptible Plasmodium falciparum 3D7 infected in human erythrocytes assessed as inhibition of parasite growth measured after 72 hrs by HRP2-ELISA. It is filed as functional, organism-based. The note with it: 3D7, Erythrocyte.
In the case of `O[C@@H](CNCCNC(c1ccccc1)c1ccccc1)c1cc(C(F)(F)F)nc2c(C(F)(F)F)cccc12`, the IC50 stood at 49.8 nM.
Turning to `OC[C@@H](Cc1ccccc1)NC[C@@H](O)c1cc(C(F)(F)F)nc2c(C(F)(F)F)cccc12` (single isomer, unassigned), the IC50 amounted to 102 nM.
The same measure, in the same setting: the figure for `O[C@H](CNCCCC(F)(F)F)c1cc(C(F)(F)F)nc2c(C(F)(F)F)cccc12` is 15.4 nM.

System in another series: not listed separately
Description: Selectivity index, ratio of IC50 for cytotoxicity against chinese hamster CHO cells to IC50 for antiplasmodial activity against Plasmodium falciparum 3D7 infected in human erythrocytes by HRP2-ELISA. It is filed as toxicity, cell-based. The note with it: read-out: Ratio IC50.
On to `O[C@@H](CNCCNC(c1ccccc1)c1ccccc1)c1cc(C(F)(F)F)nc2c(C(F)(F)F)cccc12`, for which the selectivity ratio turned out to be 233.
On the same count and under the same terms, for `OC[C@@H](Cc1ccccc1)NC[C@@H](O)c1cc(C(F)(F)F)nc2c(C(F)(F)F)cccc12` (single isomer, unassigned) the value was 345; for `O[C@H](CNCCCC(F)(F)F)c1cc(C(F)(F)F)nc2c(C(F)(F)F)cccc12`, 2560.
